Experimental data as given in US10023602B2, “Hamamelitannin analogues and uses thereof” (Universiteit Gent, priority 2014, dated 2018).

How the values were obtained:
[1] = system: methicillin resistant S. aureus Mu50 strain (S. aureus ATCC700699) biofilm; test: Biofilm susceptibility to vancomycin, pre-treatment regimen (biofilm formed in presence of compound, then vancomycin); assay type: cell-based; details: for Pretreat (100 μM): percentage Colony Forming Units (CFU's) per biofilm: compound 100 μM during biofilm formation; for Pretreat (100 μM): percentage Colony Forming Units (CFU's) per biofilm / Pretreat. (25 μM): percentage Colony Forming Units (CFU's) per biofilm: then VAN 20 μg/ml, compared to the untreated (negative) control; for EC50: concentration needed to get 50% killing compared to antibiotic alone (VAN 20 μg/ml) and complete killing, read-out: Pretreat. (EC50); for Pretreat. (25 μM): percentage Colony Forming Units (CFU's) per biofilm: compound 25 μM during biofilm formation
Method in brief: (§1)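 Mu50 biofilms from 10^8 CFU/ml inoculum (4 h adhesion, then 20 h, 37 °C). Pre-treatment: compound (0.1-250 μM) present during biofilm formation, then vancomycin 20 μg/ml alone 24 h; combination: mature biofilm given vancomycin 20 μg/ml plus compound 24 h. Survivors counted by plating versus vancomycin alone.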

[2] = system: methicillin resistant S. aureus Mu50 strain (S. aureus ATCC700699) biofilm; test: Biofilm susceptibility to vancomycin, combination treatment regimen (mature biofilm treated with compound plus vancomycin); assay type: cell-based; details: for Combin. (100 μM): percentage Colony Forming Units (CFU's) per biofilm: compound 100 μM together with VAN 20 μg/ml on mature biofilm; for Combin. (100 μM): percentage Colony Forming Units (CFU's) per biofilm / Combin. (25 μM): percentage Colony Forming Units (CFU's) per biofilm: compared to the untreated (negative) control; for EC50: concentration needed to get 50% killing compared to antibiotic alone (VAN 20 μg/ml) and complete killing, read-out: Combin. (EC50); for Combin. (25 μM): percentage Colony Forming Units (CFU's) per biofilm: compound 25 μM together with VAN 20 μg/ml on mature biofilm
Method in brief: as §1

Row | Compound | Pretreat (100 μM): percentage Colony Forming Units (CFU's) per biofilm [1] | Combin. (100 μM): percentage Colony Forming Units (CFU's) per biofilm [2] | EC50 [1] | EC50 [2] | Pretreat. (25 μM): percentage Colony Forming Units (CFU's) per biofilm [1] | Combin. (25 μM): percentage Colony Forming Units (CFU's) per biofilm [2]
1 | O=C(Cc1ccccc1)NC[C@H]1OC[C@@](O)(CNC(=O)c2ccccc2)[C@@H]1O [compound 189, N-(((3S,4R,5R)-3,4-dihydroxy-5-((2-phenylacetamido)methyl)tetrahydrofuran-3-yl)methyl)benzamide] | 59.77 percentage | 58.95 percentage |  |  |  | 
2 | O=C(NC[C@]1(O)CO[C@H](CNC(=O)c2ccc(Cl)nc2Cl)[C@H]1O)c1ccccc1 [compound 197, N-(((2R,3R,4S)-4-(benzamidomethyl)-3,4-dihydroxytetrahydrofuran-2-yl)methyl)-2,6-dichloronicotinamide] | 18.75 percentage | 16.84 percentage | 7.92 µM | 8.27 µM |  | 
3 | O=C(NC[C@]1(O)CO[C@H](CN2C(=O)c3ccccc3C2=O)[C@H]1O)c1ccnnc1 [compound 258, N-(((3S,4R,5R)-5-((1,3-dioxoisoindolin-2-yl)methyl)-3,4-dihydroxytetrahydrofuran-3-yl)methyl)pyridazine-4-carboxamide] | 0.73 percentage | 23.56 percentage | 5.85 µM | 11.4 µM |  | 
4 | O=C(NC[C@]1(O)CO[C@H](CNC(=O)c2c(Cl)cc(Cl)cc2Cl)[C@H]1O)c1ccccc1 [compound 194, N-(((2R,3R,4S)-4-(benzamidomethyl)-3,4-dihydroxytetrahydrofuran-2-yl)methyl)-2,4,6-trichlorobenzamide] | 20.50 percentage | 13.31 percentage |  |  |  | 
5 | Cn1cc(C(=O)NC[C@H]2OC[C@@](O)(CNC(=O)c3ccccc3)[C@@H]2O)c2ccccc21 [compound 187, N-(((2R,3R,4S)-4-(benzamidomethyl)-3,4-dihydroxytetrahydrofuran-2-yl)methyl)-1-methyl-1H-indole-3-carboxamide] | 32.91 percentage | 29.24 percentage |  |  |  | 
6 | O=C(NC[C@]1(O)CO[C@H](CN2C(=O)c3ccccc3C2=O)[C@H]1O)c1ccc(-c2ccccc2)cc1 [compound 254, N-(((3S,4R,5R)-5-((1,3-dioxoisoindolin-2-yl)methyl)-3,4-dihydroxytetrahydrofuran-3-yl)methyl)-[1,1′-biphenyl]-4-carboxamide] | 3.52 percentage | 30.44 percentage | 4.79 µM | 57.1 µM |  | 
7 | Cc1ccccc1C(=O)NC[C@]1(O)CO[C@H](CNC(=O)c2ccccc2Cl)[C@H]1O [compound 244, 2-chloro-N-(((2R,3R,4S)-3,4-dihydroxy-4-((2-methylbenzamido)methyl)tetrahydrofuran-2-yl)methyl)benzamide] |  |  | 56.4 µM | 124 µM | 41.07 percentage | 54.77 percentage
8 | O=C(NC[C@]1(O)CO[C@H](CNC(=O)c2ccncc2Cl)[C@H]1O)c1ccccc1 [compound 200, N-(((2R,3R,4S)-4-(benzamidomethyl)-3,4-dihydroxytetrahydrofuran-2-yl)methyl)-3-chloroisonicotinamide] | 58.59 percentage | 48.93 percentage | > 250 µM | 232 µM |  | 
9 | O=C(NC[C@]1(O)CO[C@H](CNC(=O)c2ccccc2Br)[C@H]1O)c1ccccc1 [compound 178, N-(((2R,3R,4S)-4-(benzamidomethyl)-3,4-dihydroxytetrahydrofuran-2-yl)methyl)-2-bromobenzamide] | 4.10 percentage | 17.51 percentage | 9.85 µM | 19.7 µM |  | 
10 | O=C(NC[C@]1(O)CO[C@H](CNC(=O)c2ccccc2Cl)[C@H]1O)c1ccco1 [compound 246, N-(((3S,4R,5R)-5-((2-chlorobenzamido)methyl)-3,4-dihydroxytetrahydrofuran-3-yl)methyl)furan-2-carboxamide] |  |  |  |  | 87.98 percentage | 62.82 percentage
11 | O=C(NC[C@]1(O)CO[C@H](CNC(=O)c2ccccc2Cl)[C@H]1O)c1ccc(F)cc1 [compound 233, 2-chloro-N-(((2R,3R,4S)-4-((4-fluorobenzamido)methyl)-3,4-dihydroxytetrahydrofuran-2-yl)methyl)benzamide] |  |  |  |  | 88.61 percentage | 91.63 percentage
12 | O=C(NC[C@H]1OC[C@@](O)(CNC(=O)c2ccccc2)[C@@H]1O)c1ccc(C(F)(F)F)cc1 [compound 157, N-(((2R,3R,4S)-4-(benzamidomethyl)-3,4-dihydroxytetrahydrofuran-2-yl)methyl)-4-(trifluoromethyl)benzamide] | 15.95 percentage | 11.25 percentage |  |  |  | 
13 | O=C(NC[C@]1(O)CO[C@H](CNCc2ccccc2)[C@H]1O)c1ccccc1 [compound 228, N-(((3S,4R,5R)-5-((benzylamino)methyl)-3,4-dihydroxytetrahydrofuran-3-yl)methyl)benzamide] | 18.68 percentage | 22.13 percentage | 41.2 µM | 45.2 µM |  | 
14 | COc1ccccc1C(=O)NC[C@H]1OC[C@@](O)(CNC(=O)c2ccccc2)[C@@H]1O [compound 172, N-(((2R,3R,4S)-4-(benzamidomethyl)-3,4-dihydroxytetrahydrofuran-2-yl)methyl)-2-methoxybenzamide] | 15.37 percentage | 31.40 percentage |  |  |  | 
15 | O=C(NC[C@]1(O)CO[C@H](CNS(=O)(=O)c2ccc(-c3ccccc3)cc2)[C@H]1O)c1ccccc1 [compound 219, N-(((3S,4R,5R)-5-(([1,1′-biphenyl]-4-sulfonamido)methyl)-3,4-dihydroxytetrahydrofuran-3-yl)methyl)benzamide] | 16.13 percentage | 17.02 percentage |  |  |  | 
16 | O=C(NC[C@]1(O)CO[C@H](CNC(=O)c2cccnc2Cl)[C@H]1O)c1ccccc1 [compound 199, N-(((2R,3R,4S)-4-(benzamidomethyl)-3,4-dihydroxytetrahydrofuran-2-yl)methyl)-2-chloronicotinamide] | 68.76 percentage | 65.56 percentage | > 250 µM | > 250 µM |  | 
17 | O=C(NC[C@H]1OC[C@@](O)(CNC(=O)c2ccnnc2)[C@@H]1O)c1ccc(-c2ccccc2)cc1 [compound 256, N-(((3S,4R,5R)-5-([1,1′-biphenyl]-4-carboxamidomethyl)-3,4-dihydroxytetrahydrofuran-3-yl)methyl)pyridazine-4-carboxamide] | 14.25 percentage | 29.97 percentage | 15.5 µM | 53.4 µM |  | 
18 | O=C(NC[C@H]1OC[C@@](O)(CNC(=O)c2ccccc2)[C@@H]1O)Nc1ccccc1 [compound 223, N-(((3S,4R,5R)-3,4-dihydroxy-5-((3-phenylureido)methyl)tetrahydrofuran-3-yl)methyl)benzamide] | 23.99 percentage | 18.72 percentage |  |  |  | 
19 | O=C(NC[C@]1(O)CO[C@H](Cn2cc(-c3ccccc3)nn2)[C@H]1O)c1ccccc1 [compound 221, N-(((3S,4R,5R)-3,4-dihydroxy-5-((4-phenyl-1H-1,2,3-triazol-1-yl)methyl)tetrahydrofuran-3-yl)methyl)benzamide] | 54.01 percentage | 33.81 percentage |  |  |  | 
20 | O=C(NC[C@]1(O)CO[C@H](CNS(=O)(=O)c2ccccc2)[C@H]1O)c1ccccc1 [compound 215, N-(((3S,4R,5R)-3,4-dihydroxy-5-(phenylsulfonamidomethyl)tetrahydrofuran-3-yl)methyl)benzamide] | 22.23 percentage | 31.29 percentage |  |  |  | 
21 | Cc1ccccc1C(=O)NC[C@H]1OC[C@@](O)(CNC(=O)c2ccccc2)[C@@H]1O [compound 169, N-(((2R,3R,4S)-4-(benzamidomethyl)-3,4-dihydroxytetrahydrofuran-2-yl)methyl)-2-methylbenzamide] | 11.68 percentage | 13.87 percentage | 13.7 µM | 52.6 µM |  | 
22 | CC(C)(C)C(=O)NC[C@H]1OC[C@@](O)(CNC(=O)c2ccccc2)[C@@H]1O [compound 226, N-(((3S,4R,5R)-3,4-dihydroxy-5-(pivalamidomethyl)tetrahydrofuran-3-yl)methyl)benzamide] | 50.74 percentage | 28.64 percentage |  |  |  | 
